# Experimental data from article PMC11625344, “A peptide derived from the amino terminus of leptin improves glucose metabolism and energy homeostasis in myotubes and db/db mice” (The Journal of Biological Chemistry, 2024).
# Where no end group is shown, it is not given here.
# Key:
# AMPK protein = assay: AMPK activation (Thr-172 phosphorylation), Western blot; type: cell-based, rat; conditions: peptides 5 μM 3 h; metformin 50 μM 6 h; normalised to total AMPK
# Source text: (§1) In order to examine the peptide-induced activation of a protein, related to a signaling event, we have assessed its expression in the peptide-treated L6 myotubes with respect to the myotubes, not treated with the peptide and myotubes-treated with a positive control. For this purpose, we have performed Western blotting experiments by usual procedure after resolving the proteins of the whole cell lysates of L6 myotubes, treated at different experimental conditions by SDS-PAGE. Briefly describing the procedure, whole cell lysate was prepared by lysing the cells in radioimmunoprecipitation assay lysis buffer and equal amount of lysate was resolved on 10% SDS-PAGE. Resolved proteins were transferred to nitrocellulose membrane and the membrane was blocked with 5% skimmed milk solution. Incubated with specific primary (ratio of 1: 2500 of antibody to phosphate-buffered saline with Tween 20 (PBST) used for antibodies purchased from Sigma-Aldrich and Millipore, 1:1000 for antibodies purchased from Santa Cruz) and secondary antibodies (antibody concentration of 1:2000 in PBST), and the blots were developed using ChemiDoc ([34]).
# [1] = system: acetyl-CoA carboxylase-2 (ACC2); assay: ACC2 serine-80 phosphorylation, Western blot; type: cell-based, rat
# Source text: as §1
# db/db mice = assay: In vivo antidiabetic activity, OGTT and fasting blood glucose; set-up: species or system mouse; conditions: metformin 50 mg/kg i.p. on alternate days for 30 days, n = 5
# Protocol: In vivo antidiabetic activity of the peptide was studied in diabetic animal model db/db mice. Male db/db mice with hyperglycemia were identified by checking their blood glucose level and selected for the study. Mice were divided into four groups, and the number of animals in each group was five. Blood glucose levels were measured using Accu-Chek glucometer and blood glucose measurement strips. The study was continued for 30 days. At the start of the study, fasting blood glucose in each animal was recorded, and OGTT was performed in each animal of all groups. To perform OGTT, the mice were fasted for 6 h, and then 30 min before oral glucose loading, the fasting blood glucose level in each mouse was recorded. After fasting of 6 h 3 g/kg body weight glucose was loaded orally and blood glucose at 0 minute was recorded simultaneously. Blood glucose was measured after every 30 min at 30, 60, 90, and 120 min after oral glucose loading. Time of oral glucose loading was considered as 0 min. After OGTT on day-1 peptide dosing was started. […] Thus 15 doses of the peptide/drug were administered in each db/db mice over a period of 30 days. On final day, OGTT was performed again with the same procedure described above. Blood sample was collected from each group for serum analysis. Mice were sacrificed by CO2 induced hypoxia. […]
# adiponectin = assay: Serum adiponectin ELISA; type: in vivo, mouse; conditions: metformin 50 mg/kg, 30 days; vs diabetic db/db control group
# Protocol: (§2) In vivo antidiabetic activity of the peptide was studied in diabetic animal model db/db mice. Male db/db mice with hyperglycemia were identified by checking their blood glucose level and selected for the study. Mice were divided into four groups, and the number of animals in each group was five. Blood glucose levels were measured using Accu-Chek glucometer and blood glucose measurement strips. The study was continued for 30 days. At the start of the study, fasting blood glucose in each animal was recorded, and OGTT was performed in each animal of all groups. To perform OGTT, the mice were fasted for 6 h, and then 30 min before oral glucose loading, the fasting blood glucose level in each mouse was recorded. After fasting of 6 h 3 g/kg body weight glucose was loaded orally and blood glucose at 0 minute was recorded simultaneously. Blood glucose was measured after every 30 min at 30, 60, 90, and 120 min after oral glucose loading. Time of oral glucose loading was considered as 0 min. After OGTT on day-1 peptide dosing was started. Dosing of M10 peptide at 10 mg/kg and 20 mg/kg body weight was started from day one on alternate day basis through intraperitoneal route for 30 days. Thus 15 doses of the peptide/drug were administered in each db/db mice over a period of 30 days. On final day, OGTT was performed again with the same procedure described above. […]
# TNFα = assay: Serum TNFα ELISA; type: in vivo, mouse; conditions: metformin-treated db/db group (50 mg/kg), 30 days
# Protocol: as §2
# IL-6 = assay: Serum IL-6 ELISA; type: in vivo, mouse; conditions: metformin-treated db/db group (50 mg/kg), 30 days
# Protocol: as §2
# L6 myotubes [2] = assay: Mitochondrial biogenesis assay using MitoTracker red; type: cell-based, rat; conditions: 24 h incubation; rosiglitazone 10 μM; confocal microscopy, ImageJ
# Protocol: Mitochondrial biogenesis was studied in L6 cells using mitochondrial stain MitoTracker CMXRos. The cells L6 was seeded in 4-chambered slide with a density of 20,000 cells per chamber. The cells were differentiated to myotubes following the protocol mentioned above. […] Following treatment with test peptides the cells were stained with MitoTracker red and Hoechst. The cells were then washed with PBS to remove the residual stains. Cells were then fixed with 4% paraformaldehyde and the slides were mounted using DPX. The slides were then imaged using confocal microscope. The excitation and emission wavelengths were fixed at 578 and 599 nm for red and 357 and […] for blue emission, respectively ([41]).
# L6 myotubes [3] = assay: ATP extraction and determination; type: cell-based, rat; conditions: 24 h; rosiglitazone 10 μM; vehicle-treated control 4 μM; ATP determination kit
# Protocol: Whole amount of ATP was extracted from L6-myotubes treated with leptin-1 and leptin-2 peptides and Rosiglitazone, according to the protocol mentioned in the literature ([42]). Briefly, the cells were harvested and pelleted by centrifugation. The harvested cells were incubated with 1% trichloroacetic acid and 4 mM EDTA solution for 10 min on ice for ATP extraction. The samples were centrifuged at 12,000 rpm for 10 min to pellet down the debris, and the supernatant was used for ATP determination. ATP determination was performed according to the protocol mentioned in the ATP determination kit’s manual from Thermo Fisher Scientific. Interference of trichloroacetic acid on ATP determination was avoided by 10× dilution of the sample in water.
# L6 cells = conditions: peptide up to 100 μM, 2 h; MTT, absorbance 540 nm
# Protocol: Biological activity and toxicity of the purified peptides were studied on rat skeletal muscle cell line L6. L6 cell line was seeded, grown, and differentiated according to the protocols described earlier ([34]). In brief, cells were grown in low glucose-DMEM and differentiated using DMEM containing 2% fetal bovine serum supplemented 1% Antibiotic-Antimycotic ([38], [39]).
# BALB/c mice = assay: In vivo acute toxicity and survival study; set-up: species or system mouse
# Protocol: In vivo toxicity and survival study with the peptides were performed in BALB/c mice. Mice were divided into five groups, each group with five number of mice. One group was kept as control group and injected only with vehicle (Water). […] Dosing was done through intraperitoneal route and only a single dosing was performed. The mice were kept under observation for a week after peptide injection. After 1 week of observation, survival of mice in all groups was recorded. At seventh day, blood samples were collected from each mice in all the groups, and the serum was isolated to estimate aspartate transaminase and alanine transaminase level ([43]).
# L6 myotubes [4] = assay: Glucose uptake assay with 2NBDG; type: cell-based, rat
# Protocol: As described earlier ([34]), glucose uptake assay was performed in L6 myotubes using 2NBDG. Briefly describing, L6 cells were seeded and differentiated to myotubes as described above. Differentiated myotubes were serum fasted for 6 h with serum free DMEM and the cells were incubated with desired concentration of leptin-1 and leptin-2 peptides for specified period. […] Following peptide treatment, the cells were incubated with 200 μM of 2NBDG for 10 min and the residual 2NBDG was removed and washed with PBS. Cells were trypsinized and collected in fluorescence activated cell sorting tube for fluorescence measurement. To estimate the uptake of fluorescent glucose analog, fluorescence of the cells from different samples was measured using fluorescence activated cell sorting Aria instrument.
# GLUT4 [5] = assay: GLUT4 translocation to plasma membrane, Western blot of cytosolic and membrane fractions; type: cell-based, rat; conditions: leptin-1 5 μM 3 h; insulin 100 nM 20 min; vs vehicle-treated control
# Protocol: Separation of cytosolic and membrane fraction was performed according to the protocol mentioned earlier ([34]). In brief, the harvested cells were resuspended in membrane fractionation buffer ([40]) and kept for 1 h with regular tapping. Cellular debris were removed by centrifugation at 800g for 10 min, and the supernatant was collected in fresh micro centrifuge tube, which contains the cytosolic and crude membrane fractions. Crude membrane and cytosolic fraction were separated by centrifugation at 12000 rpm for 10 min at 4 °C. The crude membrane pellet was resuspended in radioimmunoprecipitation assay lysis buffer to elute out membrane proteins and then centrifuged at 15000 rpm for 15 min. Whole process was performed on ice. Both the samples were than resolved on 10% SDS-PAGE ([38], [40]).
# In order to examine the peptide-induced activation of a protein, related to a signaling event, we have assessed its expression in the peptide-treated L6 myotubes with respect to the myotubes, not treated with the peptide and myotubes-treated with a positive control. For this purpose, we have performed Western blotting experiments by usual procedure after resolving the proteins of the whole cell lysates of L6 myotubes, treated at different experimental conditions by SDS-PAGE. […]
# GLUT4 [6] = assay: GLUT4 translocation to plasma membrane, immunocytochemistry; type: cell-based, rat; conditions: leptin-1 5 μM 3 h; insulin 100 nM 20 min; confocal imaging
# Protocol: ICC analysis for GLUT4 translocation to PM was studied in L6 myotubes. L6 cells were grown and differentiated in 4-chambered slide following the protocol described above. The differentiated cells were treated with test peptide and positive control insulin for specified time period. Cells were fixed in formalin and perforated using 0.4% Triton X-100. The cells were then immunostained using anti-GLUT4 primary antibody (1:100 dilution) and incubated overnight at 4 °C. Cells were washed three times with PBST and then incubated with Alexa flour-488 tagged secondary antibody and incubated for 2 h. After 2 h, cells were again washed 5 times with PBST, and nuclear staining was performed by incubating the cells for 30 min with Hoechst nuclear stain. The cells were then again washed 3 times and the slide was mounted using DPX mounting media. Imaging of the slides was done using confocal microscope, blue range and green ranges filters were used ([34]).
# GLUT4 [7] = assay: GLUT4 expression, Western blot; type: cell-based, rat; conditions: peptides 5 μM 3 h; insulin 100 nM 30 min; vs vehicle; beta-actin loading control
# Source text: as §1
# IRS1 = IRS1 expression, Western blot; type: cell-based, rat; conditions: peptides 5 μM 3 h; insulin 100 nM 30 min; vs vehicle
# Source text: as §1
# AKT = AKT activation (p-AKT), Western blot; type: cell-based, rat; conditions: leptin-1 5 μM 3 h; insulin 100 nM 30 min; vs vehicle; normalised to total AKT
# Source text: as §1
# [8] = 10, 20, 40 and 80 mg/kg, day 7, comparable to vehicle-treated control
compound,measurement,setting,value
CN(C)C(=N)N=C(N)N [metformin],AMPK Thr-172 phosphorylation,AMPK protein,2 fold
same,phosphorylation of S80 of ACC2 after dorsomorphin pretreatment,"[1]; dorsomorphin 1 h, then leptin-1 5 μM 3 h or metformin",prevented
same,phosphorylation of S80 residue of ACC2,"[1]; peptides 5 μM 3 h, metformin positive control",significantly increased S80 residue phosphorylation
same,fasting blood glucose (FBG),db/db mice,reduced FBG
same,glucose tolerance (OGTT),db/db mice; oral glucose 3 g/kg,improved glucose tolerance
same,increase in serum adiponectin production,adiponectin,2.6 fold
same,inhibition of TNFα production,TNFα,44%
same,inhibition of IL-6 production,IL-6,52%
CN(CCOc1ccc(CC2SC(=O)NC2=O)cc1)c1ccccn1 (centres unmarked) [rosiglitazone],mitochondrial biogenesis (Mitotracker red fluorescence),L6 myotubes [2],significantly increased mitochondrial biogenesis
same,ATP production,L6 myotubes [3],13 µM
KQKVTGLDFIPGLHPIL-NH2 [leptin-1],viability of L6 cells,L6 cells,~95%
same,survival,"BALB/c mice; 10, 20, 40 and 80 mg/kg body weight, intraperitoneal, 7 days",100%
same,serum alanine transaminase level,BALB/c mice; [8],normal
same,serum aspartate transaminase level,BALB/c mice; [8],normal
same,body weight,"BALB/c mice; all peptide-treated groups, until end of 7 days",stable body weights
VVALSRLQGSLQDMLW-NH2 [leptin-2],viability of L6 cells,L6 cells,~95%
"insulin: human insulin (Sigma-Aldrich), positive control at 100 nM","glucose uptake, positive control","L6 myotubes [4]; insulin 100 nM, Fig. 2D",significantly increased glucose uptake
same,glucose uptake without inhibitor,"L6 myotubes [4]; leptin-1 5 μM 3 h, insulin 100 nM 30 min, Fig. 5C",2.4 fold
same,GLUT4 translocation to PM,GLUT4 [5],4 fold
same,"GLUT4 translocation to PM (ICC, green fluorescence on PM)",GLUT4 [6],appreciable increase in green fluorescence
same,GLUT4 expression,GLUT4 [7],1.6 fold
same,IRS1 activation and expression,IRS1,1.6 fold
same,AKT activation (p-AKT),AKT,4.2 fold
